In patent US20060046966A1, “Antipicornaviral compounds and compositions, their pharmaceutical uses, and materials for their synthesis” (Agouron Pharmaceuticals, Inc., priority 1998, published 2006) one finds EC50 data, which are given here for one compound.

The test system of assay [1] is Coxsackievirus type A-21 (CAV-21). Description: Anticoxsackieviral cell culture assay, CAV-21. The class given is cell-based. Conditions: 48 h, Strain CAV-21, H1-HeLa cells, two days, XTT, read-out: EC50. Here is the method: Coxsackievirus types A-21 (CAV-21) and B3 (CVB-3) were purchased from American Type Culture Collection (ATCC, Rockville, Md.). Virus stocks were propagated and antiviral assays were performed in H1-HeLa cells (ATCC). Cells were grown in minimal essential medium with 10% fetal bovine serum (Life Technologies, Gaithersburg, Md.).
The ability of compounds to protect cells against either CAV-21 or CVB-3 infection was measured by the XTT dye reduction method. This method is described in Weislow et al., J. Natl. Cancer Inst. 1989, vol. 81, 577-586. H1-HeLa cells were infected with CAV-21 or CVB-3 at a multiplicity of infection (m.o.i.) of 0.025 or 0.075, respectively, or mock-infected with medium only. H1-HeLa cells were plated at 4×10^4 cells per well in a 96-well plate and incubated with appropriate concentrations of the test compound. One day (CVB-3) or two days (CAV-21) later, XTT/PMS was added to test plates and the amount of formazan produced was quantified spectrophotometrically at 450/650 nm. The EC50 was calculated as the concentration of compound that increased the formazan production in compound-treated, virus-infected cells to 50% of that produced by compound-free, uninfected cells. The 50% cytotoxic dose (CC50) was calculated as the concentration of compound that decreased formazan production in compound-treated, uninfected cells to 50% of that produced in compound-free, uninfected cells. The therapeutic index TI) was calculated by dividing the CC50 by the EC50.
The compounds were tested against control compounds WIN 54954 (obtained from Sterling-Winthrop Pharmaceuticals), Pirodavir (obtained from Janssen Pharmaceuticals), and Pleconaril (prepared according to Diana et al., J. Med. Chem. 1995, 38, 1355).
For orientation: Tetrazolium assays rely on reduction of a dye to a coloured formazan, in cell work by metabolically active cells.

The test system of another assay is HRV (87). Description: Antirhinoviral H1-HeLa cell culture assay, HRV serotype 87. The class given is cell-based. Conditions: Human rhinovirus sp., H1-HeLa cells, XTT. Here is the method: (§1) In this cell protection assay, the ability of compounds to protect cells against HRV infection was measured by the XTT dye reduction method, which is described in Weislow et al., J. Natl. Cancer Inst. 1989, vol. 81, 577-586.
(§2) H1-HeLa cells were infected with HRV-14 at a multiplicity of infection (m.o.i.) of 0.13 (virus particles/cell) or mock-infected with medium only. Infected or mock-infected cells were resuspended at 8×10^5 cells per mL, and incubated with appropriate concentrations of the compounds to be tested. Two days later, XTT/PMS was added to test plates and the amount of formazan produced was quantified spectrophotometrically at 450/650 nm. The EC50 value was calculated as the concentration of compound that increased the percentage of formazan production in compound-treated, virus-infected cells to 50% of that produced by compound-free, mock-infected cells. The 50% cytotoxic dose (CC50) was calculated as the concentration of compound that decreased the percentage of formazan produced in compound-treated, mock-infected cells to 50% of that produced by compound-free, mock-infected cells. The therapeutic index (TI) was calculated by dividing the CC50 value by the EC50 value. […]

For assay [2], the system named is Echovirus type 11 (EV 11). Description: Anti-echoviral cell culture assay, EV 11. The class given is cell-based. Conditions: Enterovirus B, MRC5, 96 h; Strain EV-11; MRC-5 cells; four days; XTT; read-out: EC50. Here is the method:
(§3) Echovirus type 11 (EV 11) and enterovirus type 70 (EV 70) were purchased from ATCC (Rockville, Md.). Virus stocks were propagated and antiviral assays were performed in MRC-5 cells (ATCC). Cells were grown in minimal essential medium with 10% fetal bovine serum (Life Technologies, Gaithersburg, Md.).
(§4) The ability of compounds to protect cells against either EV 11 or EV 70 infection was measured by the XTT dye reduction method (Weislow et al., J. Natl. Cancer Inst. 1989, vol. 81, 577-586). MRC-5 cells were infected with EV 11 or EV 70 at an m.o.i. of 0.003 or 0.004, respectively, or mock-infected with medium only. Infected or uninfected cells were added at 1×10^4 cells per well and incubated with appropriate concentrations of compound. Four days later, XTT/PMS was added to test plates, and the amount of formazan produced was quantified spectrophotometrically at 450/650 nm. The EC50 was calculated as the concentration of compound that increased the formazan production in compound-treated, virus-infected cells to 50% of that produced by compound-free, uninfected cells. The 50% cytotoxic dose (CC50) was calculated as the concentration of compound that decreased formazan production in compound-treated, uninfected cells to 50% of that produced in compound-free, uninfected cells. The therapeutic index (TI) was calculated by dividing the CC50 by the EC50.
The compounds were tested against control compounds Pirodavir (obtained from Janssen Pharmaceuticals) and Pleconaril (prepared according to Diana et al., J. Med. Chem. 1995, vol. 38, 1355). Antiviral data obtained for the test compounds against strain EV 11 and EV 70 are shown below in Table 5.

The subject of assay [3] is enterovirus type 70 (EV 70). Description: Anti-enteroviral cell culture assay, EV 70. The class given is cell-based. Particulars: Enterovirus D, MRC5, 96 h; Strain EV-70; MRC-5 cells; four days; XTT. Here is the method: as §3
as §4, with “EC50. […]” for “EC50.”

A further assay deals with HRV (39). The assay can be described thus: Antirhinoviral H1-HeLa cell culture assay, HRV serotype 39. The class given is cell-based, human rhinovirus. Conditions: Human rhinovirus sp., H1-HeLa cells, XTT. Here is the method:
as §1
(§5) H1-HeLa cells were infected with HRV-14 at a multiplicity of infection (m.o.i.) of 0.13 (virus particles/cell) or mock-infected with medium only. Infected or mock-infected cells were resuspended at 8×10^5 cells per mL, and incubated with appropriate concentrations of the compounds to be tested. Two days later, XTT/PMS was added to test plates and the amount of formazan produced was quantified spectrophotometrically at 450/650 nm. The EC50 value was calculated as the concentration of compound that increased the percentage of formazan production in compound-treated, virus-infected cells to 50% of that produced by compound-free, mock-infected cells. The 50% cytotoxic dose (CC50) was calculated as the concentration of compound that decreased the percentage of formazan produced in compound-treated, mock-infected cells to 50% of that produced by compound-free, mock-infected cells. The therapeutic index (TI) was calculated by dividing the CC50 value by the EC50 value.
(§6) All strains of human rhinovirus (HRV) for use in this assay were purchased from American Type Culture Collection (ATCC), except for HRV serotype-14 (produced from the infectious cDNA clone constructed by Dr. Robert Rueckert, Institute for Molecular Virology, University of Wisconsin, Madison, Wis.). HRV stocks were propagated and viral assays were performed in H1-HeLa cells (ATCC). Cells were grown in minimal essential medium with 10% fetal bovine serum, available from Life Technologies (Gaithersburg, Md.).
(§7) The compounds were tested against control compounds WIN 51711, WIN 52084, and WIN 54954 (obtained from Sterling-Winthrop Pharmaceuticals), Pirodavir (obtained from Janssen Pharmaceuticals), and Pleconaril (prepared according to the method described in Diana et al., J. Med. Chem 1995, vol. 38, 1355). […]

A further assay deals with HRV (30). The assay can be described thus: Antirhinoviral H1-HeLa cell culture assay, HRV serotype 30. Conditions: Human rhinovirus sp., H1-HeLa cells, XTT. The class given is cell-based. Here is the method:
as §1, §2

A further assay deals with HRV (1A). Description: Antirhinoviral H1-HeLa cell culture assay, HRV serotype 1A. The class given is cell-based. Conditions: Human rhinovirus sp., H1-HeLa cells, XTT. Here is the method: as §1, §5, §6
(§8) The compounds were tested against control compounds WIN 51711, WIN 52084, and WIN 54954 (obtained from Sterling-Winthrop Pharmaceuticals), Pirodavir (obtained from Janssen Pharmaceuticals), and Pleconaril (prepared according to the method described in Diana et al., J. Med. Chem 1995, vol. 38, 1355). Antiviral data obtained for the test compounds are shown in Tables 1 and 3, where all data are for HRV serotype-14 unless otherwise noted in parentheses.

The next assay concerns HRV (2). Description: Antirhinoviral H1-HeLa cell culture assay, HRV serotype 2. The class given is cell-based, human rhinovirus. Conditions: Human rhinovirus sp., H1-HeLa, H1-HeLa cells, XTT. Here is the method: as §1, §5, §6, §8
For a further assay, the system named is HRV (16). The assay can be described thus: Antirhinoviral H1-HeLa cell culture assay, HRV serotype 16. The class given is cell-based. Conditions: Human rhinovirus sp., H1-HeLa cells, XTT. Here is the method: as §1, §5, §6, §7
For another assay, the system named is HRV (38). Description: Antirhinoviral H1-HeLa cell culture assay, HRV serotype 38. Particulars: Human rhinovirus sp., H1-HeLa cells, XTT. The class given is cell-based. Here is the method:
as §1, §2

As for `CCOC(=O)/C=C/[C@H](C[C@@H]1CCNC1=O)NC(=O)[C@@H](CC(=O)[C@@H](NC(=O)c1cc(C)on1)C(C)C)Cc1ccc(F)cc1` [Compound B-2, Ethyl-3-{(5′-Methylisoxazole-3′-carbonyl)-L-ValΨ(COCH2)-L-(4-F-Phe)-L-((S)-Pyrrol-Ala)}-E-Propenoate], the EC50 in [1] was found to be 160 nM; in the assay with HRV (87), 60 nM; in assay [2], 10 nM; in [3], 3 nM; with HRV (39), 50 nM; in the assay with HRV (30), 40 nM. Moreover, the EC50 worked out at 20 nM in the assay with HRV (1A), 20 nM in the assay on HRV (2), 10 nM in the assay with HRV (16) and 70 nM in the assay with HRV (38).

In general, EC50 refers to the concentration needed to bring the measured effect to its halfway point.
